# Reference: ChEMBL document CHEMBL1129724, “Inhibitory potency of lithocholic acid analogs and other bile acids on glucuronosyltransferase activity in a colon cancer cell line” (Bioorg Med Chem Lett, 1996)
# System: HT-29
# Test: Inhibition of glucuronosyltransferase activity in the human colon cancer cell line HT-29 at 5 uM concentration
# Type: cell-based
# Set-up: scale not given: the % may be the effect or the level left
row,Structure (SMILES),Activity [%]
1,CC(CCC(=O)O)C1CCC2C3C=CC4C[C@@H](O)CCC4(C)C3CCC12C (some centres not stated),39.1
2,"C[C@H](CCC(=O)O)[C@H]1CC[C@H]2[C@@H]3CC(O)[C@@H]4C[C@H](O)CC[C@]4(C)[C@H]3CC[C@]12C (single isomer, unassigned)",75.2
3,C[C@H](CCC(=O)O)[C@H]1CC[C@H]2[C@@H]3CC[C@@H]4C[C@H](O)CC[C@]4(C)[C@H]3CC[C@]12C,25.3
4,CC(CCC(=O)O)[C@H]1CC[C@H]2[C@@H]3CC[C@@H]4C[C@@H](O)CC[C@]4(C)[C@H]3CC[C@]12C (some centres not stated),86.9
5,CC(CCCOP(=O)(O)O)[C@H]1CC[C@H]2[C@@H]3CC[C@@H]4C[C@H](O)CC[C@]4(C)[C@H]3CC[C@]12C (some centres not stated),74
6,CC(CCC(C(=O)O)C(=O)O)[C@H]1CC[C@H]2[C@@H]3CC[C@@H]4C[C@H](O)CC[C@]4(C)[C@H]3CC[C@]12C (some centres not stated),74.3
7,"C[C@H](CCC(=O)O)[C@H]1CC[C@H]2[C@@H]3CCC4CC(O)CC[C@]4(C)[C@H]3CC[C@]12C (single isomer, unassigned)",46.8
8,CC(CCC(=O)O)[C@H]1CC[C@H]2[C@@H]3[C@H](O)[C@H](O)[C@@H]4C[C@H](O)CC[C@]4(C)[C@H]3CC[C@]12C (some centres not stated),73.9
9,"C[C@H](CCC(=O)O)[C@H]1CC[C@H]2[C@@H]3CC[C@@H]4C[C@H](O)CCC4(C)[C@H]3CC(O)[C@]12C (single isomer, unassigned)",48
10,CC(CCC(=O)O)[C@H]1CC[C@H]2[C@@H]3[C@H](O)C[C@@H]4C[C@H](O)CC[C@]4(C)[C@H]3C[C@@H](O)[C@]12C (some centres not stated),98.3
11,C[C@H](CCC(=O)O)[C@H]1CC[C@H]2[C@@H]3[C@@H](O)C[C@@H]4C[C@H](O)CC[C@]4(C)[C@H]3CC[C@]12C,73.3
12,CC(CCC(=O)O)[C@H]1CC[C@H]2[C@@H]3CC[C@@H]4C[C@@H](O)CC[C@]4(C)[C@H]3C[C@@H](O)[C@]12C (some centres not stated),46.4
13,CC(CCC(=O)O)[C@H]1CC[C@H]2[C@@H]3C(=O)C[C@@H]4C[C@H](O)CC[C@]4(C)[C@H]3CC(=O)[C@]12C (some centres not stated),100
14,C[C@H](CCC(=O)O)[C@H]1CC[C@H]2[C@@H]3[C@H](O)C[C@@H]4C[C@H](O)CC[C@]4(C)[C@H]3CC[C@]12C,38.4
15,C[C@H](CCC(=O)O)[C@H]1CC[C@H]2[C@@H]3CC[C@@H]4CCCC[C@]4(C)[C@H]3CC[C@]12C,92
16,"CC(CC(O)C(=O)O)[C@H]1CC[C@H]2[C@@H]3CC[C@@H]4C[C@H](O)CC[C@]4(C)[C@H]3CC[C@]12C (single isomer, unassigned)",55.4
17,C[C@@H](CCC(=O)O)[C@H]1CC[C@H]2[C@@H]3[C@H](O)[C@@H](O)[C@@H]4C[C@H](O)CC[C@]4(C)[C@H]3CC[C@]12C,100
18,CC(CC(O)C(=O)O)[C@H]1CC[C@H]2[C@@H]3CC[C@@H]4C[C@H](O)CC[C@]4(C)[C@H]3CC[C@]12C (stereo in doubt),34.9
19,CC(CCC(=O)O)[C@H]1CC[C@H]2[C@@H]3CC[C@@H]4C[C@H](O)CC[C@]4(C)[C@H]3CC(=O)[C@]12C (some centres not stated),36.1
20,CC(CCC(=O)O)C1CCC2C3C=CC4C[C@H](O)CCC4(C)C3CCC12C (some centres not stated),41.4
21,CC(CCCCC(=O)O)[C@H]1CC[C@H]2[C@@H]3CC[C@@H]4C[C@H](O)CC[C@]4(C)[C@H]3CC[C@]12C (some centres not stated),41.9
22,CC(CCC(=O)O)[C@H]1CC[C@H]2[C@@H]3[C@@H](O)[C@H](O)[C@@H]4C[C@H](O)CC[C@]4(C)[C@H]3CC[C@]12C (some centres not stated),78.5
23,CC(CCC(=O)O)[C@H]1CC[C@H]2[C@@H]3CC[C@@H]4CC(=O)CC[C@]4(C)[C@H]3CC[C@]12C (some centres not stated),46
24,CC(CC(O)C(=O)O)[C@H]1CC[C@H]2[C@@H]3CC[C@@H]4C[C@H](O)CC[C@]4(C)[C@H]3CC[C@]12C (mixture of isomers),40
25,CC(CCCO)[C@H]1CC[C@H]2[C@@H]3CC[C@@H]4C[C@H](O)CC[C@]4(C)[C@H]3CC[C@]12C (some centres not stated),72.8
26,CC(CCC(=O)O)[C@H]1CC[C@H]2[C@@H]3C(=O)C[C@@H]4C[C@H](O)CC[C@]4(C)[C@H]3CC[C@]12C (some centres not stated),51.1
27,CC(CCC(=O)O)[C@H]1CC[C@H]2[C@@H]3CC(=O)[C@@H]4C[C@H](O)CC[C@]4(C)[C@H]3CC[C@]12C (some centres not stated),28.1
